What all share (assay): MIC on a wider panel of strains (Example 10), microdilution
Format in all cases: cell-based
On the technique in general: In broth dilution the organism is exposed to a series of concentrations in liquid medium.

Experiment [1] relates to Staphylococcus S. aureus strains (ATCC, methicillin-resistant, daptomycin-resistant). As for the experimental part:
(§1) The cultures studied, freshly isolated (after incubation on a blood agar at 37° C. for 18 h), are taken up in sterile water (10 mL) until obtaining a 0.5 McFarland (Mc) suspension i.e. 1 to 1 to 2×10^8 CFU (bacteria)/cm^3. The bacterial suspension was then diluted to obtain a final concentration of 1×10^6 CFU/cm^3.
(§2) Each well contains an identical quantity of Mueller-Hinton medium (a rich medium for bacterial culture) and bacteria with final [concentration of] 0.5×10^6 CFU/cm^3.
(§3) The test compounds of interest are solubilized in ethanol or DMSO at 25 mg/mL before being diluted to different concentrations two by two. On the multiwell plate, a first series has been planned comprising the culture medium without the test compound of interest. It corresponds to the growth control (control well). These controls serve as reference for comparing bacterial growth with that of the subsequent wells comprising different concentrations of the test compound of interest. The second series of wells comprises the mother solution for the test compound of interest for a concentration in the wells of 256 mg/L (7 mM). Each series of wells was diluted two by two until the last series for a final concentration of 0.25 mg/L (0.0007 mM). Each concentration is duplicated in the same plate. The plate is incubated for 18 h at 37° C. […] If there is antibacterial activity, the bacterial growth is inhibited, which means that no turbidity or bacterial residue is present.
(§4) The minimum inhibitory concentrations (MIC) are tested on Gram-positive bacterial strains according to the recommendations of the “Clinical Laboratory Standards Institute” (Clinical-Laboratory-Standards-Institute, 6th ed. Approved standard M100-S17. CLSI, Wayne, Pa., 2007). The clinical strains have been isolated in the Hospice de Lyon.
Staphylococci S. aureus: ATCC® 29213™, ATCC 25923,
(§5) The cultures studied, freshly isolated (after incubation on a blood agar at 37° C. for 18 h), are taken up in sterile water (10 mL) until obtaining a 0.5 McFarland (Mc) suspension i.e. At 10^8 CFU (bacteria)/cm^3. The bacterial suspension was then diluted to obtain a final concentration of 10^6 CFU/cm^3.

In experiment [2] the test system is E. faecalis strains (ATCC 29212, 9901, 1801). To be noted: Enterococcus faecalis, ATCC29212. As for the experimental part:
The cultures studied, freshly isolated (after incubation on a blood agar at 37° C. for 18 h), are taken up in sterile water (10 mL) until obtaining a 0.5 McFarland (Mc) suspension i.e. 1 to 1 to 2×10^8 CFU (bacteria)/cm^3. The bacterial suspension was then diluted to obtain a final concentration of 1×10^6 CFU/cm^3. Each well contains an identical quantity of Mueller-Hinton medium (a rich medium for bacterial culture) and bacteria with final [concentration of] 0.5×10^6 CFU/cm^3. The test compounds of interest are solubilized in ethanol or DMSO at 25 mg/mL before being diluted to different concentrations two by two. On the multiwell plate, a first series has been planned comprising the culture medium without the test compound of interest. It corresponds to the growth control (control well). These controls serve as reference for comparing bacterial growth with that of the subsequent wells comprising different concentrations of the test compound of interest. The second series of wells comprises the mother solution for the test compound of interest for a concentration in the wells of 256 mg/L (7 mM). Each series of wells was diluted two by two until the last series for a final concentration of 0.25 mg/L (0.0007 mM). Each concentration is duplicated in the same plate. The plate is incubated for 18 h at 37° C. […] If there is antibacterial activity, the bacterial growth is inhibited, which means that no turbidity or bacterial residue is present. The minimum inhibitory concentrations (MIC) are tested on Gram-positive bacterial strains according to the recommendations of the “Clinical Laboratory Standards Institute” (Clinical-Laboratory-Standards-Institute, 6th ed. Approved standard M100-S17. CLSI, Wayne, Pa., 2007). The clinical strains have been isolated in the Hospice de Lyon. Enterococci: E. faecalis (ATCC® 29212™), clinical enterococci strains E. faecalis isolated from urines: strain 015206179901 (hereinafter 9901), strain 015205261801 (hereinafter 1801) The cultures studied, freshly isolated (after incubation on a blood agar at 37° C. for 18 h), are taken up in sterile water (10 mL) until obtaining a 0.5 McFarland (Mc) suspension i.e. At 10^8 CFU (bacteria)/cm^3. The bacterial suspension was then diluted to obtain a final concentration of 10^6 CFU/cm^3.

Experiment [3] relates to E. faecium strains (CIP 103510, Van A, 1401). To be noted: Enterococcus faecium, CIP103510. As to the method: as §1, §2, §3, §4
Enterococci: E. faecium (CIP 103510), clinical strains of Enterococci E. faecium: Van A 0151850763 (hereinafter Van A); strain 015 205731401 (hereinafter 1401),
as §5

The mark [4] stands for this setting: methicillin-resistant, HT 2002-0417, read-out: MIC S. aureus HT 2002-0417.
Setting [5] is: methicillin-resistant, HT 2006-1004, read-out: MIC S. aureus HT 2006-1004.
Setting [6] is: methicillin-resistant, LY 199-0053, read-out: MIC S. aureus LY 199-0053.
Where [7] appears, read: methicillin-resistant, Lac-Deleo USA 300, read-out: MIC S. aureus USA 300.
[8] abbreviates: methicillin-resistant, MU 3, read-out: MIC S. aureus MU 3.
The mark [9] stands for this setting: strain ATCC 25923, read-out: MIC S. aureus ATCC 25923.
The mark [10] stands for this setting: strain ATCC 29213, read-out: MIC S. aureus ATCC 29213.
Setting [11] is: E. faecalis ATCC 29212, read-out: MIC Enterococcus ATCC 29212.
Setting [12] is: E. faecium CIP 103510, read-out: MIC Enterococcus CIP 103510.
The mark [13] stands for this setting: E. faecium clinical strain Van A 0151850763, read-out: MIC Enterococcus Van A.

Converted amounts (≈) assume the structure as drawn. Where two headings read alike, the source gives them in different places. Bounds are passed on as bounds.

A word on the MIC: it is the lowest concentration found to suppress growth. `CCCCCCCCCCCC1OCC2O[C@H](OC)C(O)C(O)[C@@H]2O1` (stereo partly drawn) [Compound 1e, Methyl 4,6-O-Dodecylidene α-D-glucopyranoside]: the MIC in experiment [1] (Staphylococcus, all strains of Table 6, read-out: MIC, staphylococcus strains tested) was over 256 µg/mL; in experiment [1] (setting [4]) it was 256 µg/mL (≈ 710 µM); in experiment [1] (methicillin-resistant, HT 2004-0012, read-out: MIC S. aureus HT 2004-0012) it was 256 µg/mL (≈ 710 µM); in experiment [1] (setting [5]), 256 µg/mL (≈ 710 µM); in experiment [1] (setting [6]), 256 µg/mL (≈ 710 µM); in experiment [1] (setting [7]) it was 256 µg/mL (≈ 710 µM). For the same compound, the minimum inhibitory concentration (MIC) in experiment [1] (setting [8]), in experiment [1] (setting [9]), in experiment [1] (setting [10]), in experiment [2] (setting [11]), in experiment [3] (setting [12]) and in experiment [3] (setting [13]) was 256 µg/mL (≈ 710 µM) each time.

For `CCCCCCCCCCCC1OCC2O[C@@H](OC)C(O)C(O)[C@@H]2O1` (stereo partly drawn) [Compound 1f, Methyl 4,6-O-Dodecylidene β-D-glucopyranoside], the MIC in experiment [1] (daptomycin-resistant, ST 2014 1288, read-out: MIC S. aureus ST 2014 1288) was found to be 64 µg/mL (≈ 178 µM); in experiment [1] (daptomycin-resistant, ST 2015-0188, read-out: MIC S. aureus ST 2015 0188) it was 64 µg/mL (≈ 178 µM); in experiment [1] (daptomycin-resistant, ST 2015-0989, read-out: MIC S. aureus ST 2015 0989), 64 µg/mL (≈ 178 µM); in experiment [1] (setting [4]) it was 128 µg/mL (≈ 355 µM); in experiment [1] (setting [5]) it was 64 µg/mL (≈ 178 µM); in experiment [1] (setting [6]) it was 64 µg/mL (≈ 178 µM). For the same compound, the MIC was found to be 64 µg/mL (≈ 178 µM) in experiment [1] (setting [7]); 64 µg/mL (≈ 178 µM) in experiment [1] (setting [8]); 64 µg/mL (≈ 178 µM) in experiment [1] (setting [9]); 64 µg/mL (≈ 178 µM) in experiment [1] (setting [10]); 64 µg/mL (≈ 178 µM) in experiment [2] (setting [11]); 8 µg/mL (≈ 22.2 µM) in experiment [2] (E. faecalis clinical strain 015205261801, from urines, read-out: MIC Enterococcus 1801). In addition, the minimum inhibitory concentration (MIC) in experiment [2] (E. faecalis clinical strain 015206179901, from urines, read-out: MIC Enterococcus 9901) worked out at 32 µg/mL (≈ 88.8 µM); in experiment [3] (setting [12]), 32 µg/mL (≈ 88.8 µM); in experiment [3] (E. faecium clinical strain 015 205731401, read-out: MIC Enterococcus 1401) it was 16 µg/mL (≈ 44.4 µM); in experiment [3] (setting [13]), 32 µg/mL (≈ 88.8 µM).

Values taken from patent publication US10537103B2, “Antibacterial composition containing an isomer mixture of monosaccharide alkyl monoacetals or monoethers” (TEREOS STARCH & SWEETENERS BELGIUM, priority 2014, dated 2020).
